Test system: male ddy strain mouse
Assay: Pharmacological test of antipruritic action using mice (Compound 48/80-induced scratching)
Details: for Number of times scratching occurred (mean ± standard error): counted for 30 minutes after Compound 48/80 100 μg/body s.c., oxybuprocaine in saline 10 mg/kg dorsal neck, cyproheptadine 1 mg/kg intraperitoneally, n=6

| Structure (SMILES) | Number of times scratching occurred (mean ± standard error) | Antipruritic effect in words (suppression of scratching behaviors) (compared to saline control group and cyproheptadine group) |
| --- | --- | --- |
| CN1CCC(=C2c3ccccc3C=Cc3ccccc32)CC1 [cyproheptadine] | 76.7 ± 21.3 |  |
| CCCCOc1cc(C(=O)OCCN(CC)CC)ccc1N [oxybuprocaine, Oxybuprocaine] | 45.8 ± 18.9 | suppressed scratching behaviors strongly |
